Test results published in US11759455B2, “Substituted 1H-imidazo[4,5-b]pyridin-2(3H)-ones and their use as GLUN2B receptor modulators” (JANSSEN PHARMACEUTICA NV, priority 2016, dated 2023).

molecular target: T1, human GluN1/GluN2B NMDA receptors (Homo sapiens, UniProt Q13224); test: Cell-based calcium flux (FLIPR) assay on cloned human NR1/NR2B ion channels expressed in mammalian cells (standard and HTS buffer variants); conditions: standard assay buffer (0.5 mM MgCl2 dye loading; 137 mM NaCl, 4 mM KCl assay buffer), human GluN1/GluN2B cells, read-out: NR2B IC50 (μM) standard assay;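 further: stable Tet-On inducible cell line, Ca2+ influx triggered by glutamate at about EC40 plus 10 µM glycine, fluorescent dye read-out over 5 min, normalized to control wells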
T1 construct: expressed in transfected cells
T1 sequence (Q13224 27-1484, other chains not shown): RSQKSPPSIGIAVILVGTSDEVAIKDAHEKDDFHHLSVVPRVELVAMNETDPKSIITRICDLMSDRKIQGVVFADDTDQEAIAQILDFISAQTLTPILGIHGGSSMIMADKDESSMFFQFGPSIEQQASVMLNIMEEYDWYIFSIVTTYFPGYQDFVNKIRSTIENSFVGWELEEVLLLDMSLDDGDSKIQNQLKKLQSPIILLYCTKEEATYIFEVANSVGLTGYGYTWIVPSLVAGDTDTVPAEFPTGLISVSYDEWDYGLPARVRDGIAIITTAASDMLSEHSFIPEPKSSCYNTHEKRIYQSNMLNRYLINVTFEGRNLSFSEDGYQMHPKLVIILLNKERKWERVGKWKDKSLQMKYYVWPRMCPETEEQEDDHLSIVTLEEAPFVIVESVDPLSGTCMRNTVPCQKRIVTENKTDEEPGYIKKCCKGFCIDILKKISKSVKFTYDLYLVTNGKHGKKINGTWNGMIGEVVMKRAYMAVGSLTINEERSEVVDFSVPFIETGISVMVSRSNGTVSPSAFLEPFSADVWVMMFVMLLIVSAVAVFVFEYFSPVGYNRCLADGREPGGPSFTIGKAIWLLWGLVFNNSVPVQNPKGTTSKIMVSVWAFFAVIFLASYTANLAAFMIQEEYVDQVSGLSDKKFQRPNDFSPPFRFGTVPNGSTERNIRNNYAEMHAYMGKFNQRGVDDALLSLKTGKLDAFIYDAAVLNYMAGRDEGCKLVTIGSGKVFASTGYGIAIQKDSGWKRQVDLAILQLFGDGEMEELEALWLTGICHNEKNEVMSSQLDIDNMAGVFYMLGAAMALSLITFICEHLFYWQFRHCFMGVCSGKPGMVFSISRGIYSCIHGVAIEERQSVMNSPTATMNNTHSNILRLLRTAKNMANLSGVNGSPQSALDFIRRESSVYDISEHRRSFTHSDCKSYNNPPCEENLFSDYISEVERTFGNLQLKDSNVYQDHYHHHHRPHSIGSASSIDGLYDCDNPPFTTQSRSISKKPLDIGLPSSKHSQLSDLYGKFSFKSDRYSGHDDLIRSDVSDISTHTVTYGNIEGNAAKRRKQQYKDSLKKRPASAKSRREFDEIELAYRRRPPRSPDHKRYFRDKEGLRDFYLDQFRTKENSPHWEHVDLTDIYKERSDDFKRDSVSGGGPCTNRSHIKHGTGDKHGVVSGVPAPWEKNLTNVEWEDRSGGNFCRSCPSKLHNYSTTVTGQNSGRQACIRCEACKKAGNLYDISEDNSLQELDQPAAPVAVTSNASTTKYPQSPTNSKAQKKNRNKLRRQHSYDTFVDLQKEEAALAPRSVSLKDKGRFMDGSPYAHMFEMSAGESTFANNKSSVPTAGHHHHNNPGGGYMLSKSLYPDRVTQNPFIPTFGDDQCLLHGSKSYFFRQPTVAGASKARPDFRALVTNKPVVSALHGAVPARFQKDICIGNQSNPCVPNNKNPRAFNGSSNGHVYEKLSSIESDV

| IC50 | Structure (SMILES) |
| --- | --- |
| 9.35 µM | Cc1c(-c2cnc3[nH]c(=O)n(CCN4CC(F)C4)c3c2)cccc1C(F)(F)F [Example 181, 1-[2-(3-Fluoroazetidin-1-yl)ethyl]-6-[2-methyl-3-(trifluoromethyl)phenyl]-3H-imidazo[4,5-b]pyridin-2-one] |
| 1.74 µM | Cc1cccc(-c2cnc3[nH]c(=O)n(CCN4CC(F)C4)c3c2)c1C [Example 182, 6-(2,3-Dimethylphenyl)-1-[2-(3-fluoroazetidin-1-yl)ethyl]-3H-imidazo[4,5-b]pyridin-2-one] |
| 2.08 µM | Cc1cc(C)cc(-c2cnc3[nH]c(=O)n(CCN4CC(F)C4)c3c2)c1 [Example 183, 6-(3,5-Dimethylphenyl)-1-[2-(3-fluoroazetidin-1-yl)ethyl]-3H-imidazo[4,5-b]pyridin-2-one] |
| 2.57 µM | Cc1c(F)ccc(-c2cnc3[nH]c(=O)n(CCN4CC(F)C4)c3c2)c1C [Example 184, 1-[2-(3-Fluoroazetidin-1-yl)ethyl]-6-(4-fluoro-2,3-dimethyl-phenyl)-3H-imidazo[4,5-b]pyridin-2-one] |
| 2.13 µM | Cc1ccc(C(F)(F)F)cc1-c1cnc2[nH]c(=O)n(CCN3CC(F)C3)c2c1 [Example 185, 1-[2-(3-Fluoroazetidin-1-yl)ethyl]-6-[2-methyl-5-(trifluoromethyl)phenyl]-3H-imidazo[4,5-b]pyridin-2-one] |
| 1.34 µM | Cc1ccccc1-c1cnc2[nH]c(=O)n(CCN3CC(F)C3)c2c1 [Example 186, 1-[2-(3-Fluoroazetidin-1-yl)ethyl]-6-(o-tolyl)-3H-imidazo[4,5-b]pyridin-2-one] |
| 1.19 µM | Cc1cc(F)ccc1-c1cnc2[nH]c(=O)n(CCN3CC(F)C3)c2c1 [Example 187, 1-[2-(3-Fluoroazetidin-1-yl)ethyl]-6-(4-fluoro-2-methyl-phenyl)-3H-imidazo[4,5-b]pyridin-2-one] |
| 1.44 µM | O=c1[nH]c2ncc(-c3ccccc3)cc2n1CCN1CC(F)C1 [Example 188, 1-[2-(3-Fluoroazetidin-1-yl)ethyl]-6-phenyl-3H-imidazo[4,5-b]pyridin-2-one] |
| 2.57 µM | CCCNCCn1c(=O)[nH]c2ncc(-c3cc(F)cc(F)c3)cc21 [Example 189, 6-(3,5-Difluorophenyl)-1-[2-(propylamino)ethyl]-3H-imidazo[4,5-b]pyridin-2-one] |
| 0.07 µM | O=C(Cn1c(=O)[nH]c2ncc(-c3cccc(C(F)(F)F)c3)cc21)NC1CCC1 [Example 190, N-Cyclobutyl-2-[2-oxo-6-[3-(trifluoromethyl)phenyl]-3H-imidazo[4,5-b]pyridin-1-yl]acetamide] |
| 0.132 µM | COC1CN(C(=O)Cn2c(=O)[nH]c3ncc(-c4cccc(C(F)(F)F)c4)cc32)C1 [Example 191, 1-[2-(3-Methoxyazetidin-1-yl)-2-oxo-ethyl]-6-[3-(trifluoromethyl)phenyl]-3H-imidazo[4,5-b]pyridin-2-one] |
| 0.052 µM | O=C(Cn1c(=O)[nH]c2ncc(-c3cccc(C(F)(F)F)c3)cc21)NC1COC1 [Example 192, N-(Oxetan-3-yl)-2-[2-oxo-6-[3-(trifluoromethyl)phenyl]-3H-imidazo[4,5-b]pyridin-1-yl]acetamide] |
| 0.587 µM | CN1CCN(C(=O)Cn2c(=O)[nH]c3ncc(-c4cccc(C(F)(F)F)c4)cc32)CC1 [Example 193, 1-[2-(4-Methylpiperazin-1-yl)-2-oxo-ethyl]-6-[3-(trifluoromethyl)phenyl]-3H-imidazo[4,5-b]pyridin-2-one] |
| 0.047 µM | O=C(Cn1c(=O)[nH]c2ncc(-c3cccc(C(F)(F)F)c3)cc21)N1CC(F)(F)C1 [Example 194, 1-[2-(3,3-Difluoroazetidin-1-yl)-2-oxo-ethyl]-6-[3-(trifluoromethyl)phenyl]-3H-imidazo[4,5-b]pyridin-2-one] |
| 0.007 µM | O=C(Cn1c(=O)[nH]c2ncc(-c3cccc(C(F)(F)F)c3)cc21)NC1CC(F)(F)C1 [Example 195, N-(3,3-Difluorocyclobutyl)-2-[2-oxo-6-[3-(trifluoromethyl)phenyl]-3H-imidazo[4,5-b]pyridin-1-yl]acetamide] |
| 0.182 µM | Cn1c(=O)n(CC(=O)N2CCC(F)(F)C2)c2cc(-c3cccc(C(F)(F)F)c3)cnc21 [Example 196, 1-[2-(3,3-Difluoropyrrolidin-1-yl)-2-oxo-ethyl]-3-methyl-6-[3-(trifluoromethyl)phenyl]imidazo[4,5-b]pyridin-2-one] |
| 0.205 µM | Cn1c(=O)n(CC(=O)N2CCCC2)c2cc(-c3cccc(C(F)(F)F)c3)cnc21 [Example 197, 3-Methyl-1-(2-oxo-2-pyrrolidin-1-yl-ethyl)-6-[3-(trifluoromethyl)phenyl]imidazo[4,5-b]pyridin-2-one] |
| 5.01 µM | Cn1c(=O)n(CC(=O)NC2(C)CC(F)(F)C2)c2cc(-c3cccc(C(F)(F)F)c3)cnc21 [Example 198, N-(3,3-Difluoro-1-methyl-cyclobutyl)-2-[3-methyl-2-oxo-6-[3-(trifluoromethyl)phenyl]imidazo[4,5-b]pyridin-1-yl]acetamide] |
| 2.66 µM | Cn1c(=O)n(CC(=O)NC2(C)COC2)c2cc(-c3cccc(C(F)(F)F)c3)cnc21 [Example 199, N-(3-Methyloxetan-3-yl)-2-[3-methyl-2-oxo-6-[3-(trifluoromethyl)phenyl]imidazo[4,5-b]pyridin-1-yl]acetamide] |

| IC50 | Structure (SMILES) |
| --- | --- |
| 0.174 µM | Cn1c(=O)n(CC(=O)NC2CC(F)(F)C2)c2cc(-c3cccc(C(F)(F)F)c3)cnc21 [Example 200, N-(3,3-Difluorocyclobutyl)-2-[3-methyl-2-oxo-6-[3-(trifluoromethyl)phenyl]imidazo[4,5-b]pyridin-1-yl]acetamide] |
| 0.033 µM | O=C(Cn1c(=O)[nH]c2ncc(-c3cccc(C(F)(F)F)c3)cc21)N1CCCC1 [Example 201, 1-(2-Oxo-2-pyrrolidin-1-yl-ethyl)-6-[3-(trifluoromethyl)phenyl]-3H-imidazo[4,5-b]pyridin-2-one] |
| 0.037 µM | O=C(Cn1c(=O)[nH]c2ncc(-c3cccc(C(F)(F)F)c3)cc21)N1CCOCC1 [Example 204, 1-(2-Morpholino-2-oxo-ethyl)-6-[3-(trifluoromethyl)phenyl]-3H-imidazo[4,5-b]pyridin-2-one] |
| 0.523 µM | O=C(Cn1c(=O)[nH]c2ncc(-c3cccc(C(F)(F)F)c3)cc21)NC1CCCC1 [Example 205, N-Cyclopentyl-2-[2-oxo-6-[3-(trifluoromethyl)phenyl]-3H-imidazo[4,5-b]pyridin-1-yl]acetamide] |
| 0.163 µM | O=C(Cn1c(=O)[nH]c2ncc(-c3cccc(C(F)(F)F)c3)cc21)N1CCCCC1 [Example 206, 1-[2-Oxo-2-(1-piperidyl)ethyl]-6-[3-(trifluoromethyl)phenyl]-3H-imidazo[4,5-b]pyridin-2-one] |
| 0.453 µM | O=C(Cn1c(=O)[nH]c2ncc(-c3cccc(C(F)(F)F)c3)cc21)N1CC2(CNC2)C1 [Example 207, 1-[2-(2,6-Diazaspiro[3.3]heptan-6-yl)-2-oxo-ethyl]-6-[3-(trifluoromethyl)phenyl]-3H-imidazo[4,5-b]pyridin-2-one] |
| > 10 µM | O=C(Cn1c(=O)[nH]c2ncc(-c3cccc(C(F)(F)F)c3)cc21)Nc1ccccn1 [Example 208, 2-[2-Oxo-6-[3-(trifluoromethyl)phenyl]-3H-imidazo[4,5-b]pyridin-1-yl]-N-(2-pyridyl)acetamide] |
| 0.443 µM | CC1(NC(=O)Cn2c(=O)[nH]c3ncc(-c4cccc(C(F)(F)F)c4)cc32)CC(F)(F)C1 [Example 209, N-(3,3-Difluoro-1-methyl-cyclobutyl)-2-[2-oxo-6-[3-(trifluoromethyl)phenyl]-3H-imidazo[4,5-b]pyridin-1-yl]acetamide] |
| 1.62 µM | COc1ccc(Cn2c(=O)[nH]c3ncc(-c4cccc(C(F)(F)F)c4)cc32)cn1 [Example 210, 1-[(6-Methoxy-3-pyridyl)methyl]-6-[3-(trifluoromethyl)phenyl]-3H-imidazo[4,5-b]pyridin-2-one] |
| 0.115 µM | O=c1[nH]c2ncc(-c3cccc(C(F)(F)F)c3)cc2n1CC1CC1 [Example 211, 1-(Cyclopropylmethyl)-6-[3-(trifluoromethyl)phenyl]-3H-imidazo[4,5-b]pyridin-2-one] |
| 0.123 µM | N#Cc1cccc(Cn2c(=O)[nH]c3ncc(-c4cccc(C(F)(F)F)c4)cc32)c1 [Example 212, 3-[[2-Oxo-6-[3-(trifluoromethyl)phenyl]-3H-imidazo[4,5-b]pyridin-1-yl]methyl]benzonitrile] |
| 0.375 µM | N#Cc1ccccc1Cn1c(=O)[nH]c2ncc(-c3cccc(C(F)(F)F)c3)cc21 [Example 213, 2-[[2-Oxo-6-[3-(trifluoromethyl)phenyl]-3H-imidazo[4,5-b]pyridin-1-yl]methyl]benzonitrile] |
| > 10 µM | O=C(Cn1c(=O)[nH]c2ncc(-c3cccc(C(F)(F)F)c3)cc21)c1cccs1 [Example 214, 1-[2-Oxo-2-(2-thienyl)ethyl]-6-[3-(trifluoromethyl)phenyl]-3H-imidazo[4,5-b]pyridin-2-one] |
| 0.365 µM | O=C(Cn1c(=O)[nH]c2ncc(-c3cccc(C(F)(F)F)c3)cc21)c1nccs1 [Example 215, 1-(2-Oxo-2-thiazol-2-yl-ethyl)-6-[3-(trifluoromethyl)phenyl]-3H-imidazo[4,5-b]pyridin-2-one] |
| > 10 µM | O=c1[nH]c2ncc(-c3cccc(C(F)(F)F)c3)cc2n1Cc1ccc(C(F)(F)F)cc1 [Example 219, 6-[3-(Trifluoromethyl)phenyl]-1-[[4-(trifluoromethyl)phenyl]methyl]-3H-imidazo[4,5-b]pyridin-2-one] |
| 1.65 µM | COc1ccc(Cn2c(=O)[nH]c3ncc(-c4cccc(C(F)(F)F)c4)cc32)cc1F [Example 220, 1-[(3-Fluoro-4-methoxy-phenyl)methyl]-6-[3-(trifluoromethyl)phenyl]-3H-imidazo[4,5-b]pyridin-2-one] |
| 8.71 µM | Cc1cc(Cn2c(=O)[nH]c3ncc(-c4cccc(C(F)(F)F)c4)cc32)ccc1F [Example 221, 1-[(4-Fluoro-3-methyl-phenyl)methyl]-6-[3-(trifluoromethyl)phenyl]-3H-imidazo[4,5-b]pyridin-2-one] |
| 0.479 µM | O=c1[nH]c2ncc(-c3cccc(C(F)(F)F)c3)cc2n1Cc1cccc(F)c1 [Example 222, 1-[(3-Fluorophenyl)methyl]-6-[3-(trifluoromethyl)phenyl]-3H-imidazo[4,5-b]pyridin-2-one] |
